What was measured:
MC4 receptor (MC4R) = target: T1, MC4 receptor (MC4R) (Homo sapiens, UniProt P32245); test: Nle4, D-Phe7-α-MSH inhibition at the MC4 receptor (SPA competition binding vs [125I] Nle4, D-Phe7-α-MSH); conditions: vs 0.06 nM [125I] Nle4, D-Phe7-α-MSH, CHO-CRE MC4R cell membranes
T1 construct: expressed in transfected cells; host or cells: CHO-CRE MC4R cells (membranes)
Source text: Nle4, D-Phe7-α-MSH Inhibition at the MC4 Receptor
Nle4, Nle4, D-Phe7-α-MSH is a stable analogue of melanocyte-stimulating hormone (MSH), which is an agonist at the MC4 receptor (MC4R). Compounds can be evaluated for their ability to inhibit Nle4, Nle4, D-Phe7-α-MSH binding to membranes from cells expressing the MC4R using a competition binding assay versus [^125I] Nle4, D-Phe7-α-MSH.
Cells expressing the MC4R were subject to homogenisation and the membrane fragment isolated by differential centrifugation. CHO-CRE MC4R cell membranes were coupled to PVT-PEI-WGA SPA Beads type A for 2 hours, spun at 1000 RPM for 5 mins and suspended to a concentration of 300 ug bead/ml (0.15 ug membrane, 15 ug bead per well). Bead/membrane mix was incubated with 0.06 nM [^125I] Nle4, D-Phe7-α-MSH and 11 half-log concentrations of competitor ligand, in duplicate, in a total volume of 50 μl buffer per well (25 mM HEPES, 1 mM MgCl2, 2.5 mM CaCl2, 1% Pluronic F68, 1 complete EDTA protease inhibitor tablet/50 ml pH7). Non-specific binding was determined by the inclusion of 100 nM SHU9119. The reaction was initiated by the addition of bead/membranes and plates were incubated at room temperature for 12 hours (the first hour on a plate shaker), after which the amount of radioactivity present was determined using a Wallac plate counter. Ki values were determined by data analysis using appropriate software.

[1] = In vitro metabolism rate determination, rat liver microsome (RLM) assay; assay type: in vitro ADME; conditions: rat liver microsomes, substrate 1 μM; read-out: RLM (intrinsic clearance)
Source text: In vitro Metabolism Rate Determination (Human Liver Microsome (HLM); Rat Liver Microsome (RLM) Assay)
Many drugs are metabolised by the cytochrome P450 mono-oxygenase system. This enzyme is found in high concentrations in the liver and is bound to the endoplasmic reticulum of the hepatocyte. The enzyme system can be obtained in semi-purified state by the preparation of the hepatic microsomal fractions. Determining a compound's in vitro half-life in such a system provides a useful indicator of metabolic stability.
Methodology For In Vitro Rate Determination Using Hepatic & Supermix Microsomes
The method outlined below is for a total incubation volume of 1.5 ml.
1. The following mixture is prepared in a test tube:
2. Defrost microsomes at room temperature and add sufficient microsomes to give a final concentration of 0.5 nmol cytochrome P450/ml of incubation e.g. for a 1.5 ml incubation, the volume of microsomes to be added is:
[formula] 3. Add sufficient MilliQ water to give a total incubation volume of 1.425 ml. 4. Remove 237.5 μl of incubation mix and place in test tube for PNA positive control. Add 2.5 μl of PNA solution, whirlimix, and put tube into a rack in the thermostatically controlled shaking water bath 5. Remove 100 μl for no substrate control and dispense in test tube. Place test tube in a rack in the thermostatically controlled shaking water bath. 6. Add substrate to the incubation. The substrate should be at an initial concentration of 1 μM. The volume of substrate required in the remaining 1.162.5 ml incubation is calculated as follows:
[formula] • N.B. The volume of organic solvent added should not exceed 0.1% of the total incubation volume. 7. Remove 100 μl of incubation mix into test tube for no cofactor control. Whirlimix and put into a rack in the thermostatically controlled shaking water bath. 8. Pre-incubate the tube containing the incubation mix, also positive control and no cofactor tubes in the thermostatically controlled shaking water bath set at 37° C. for approx 5 min. 9. Add NADP to initiate reaction (75 μl to each 1.162.5 ml incubation mix, 12.5 μl to positive control tube and 5 μl to no substrate tube) and take first time point immediately. The PNA positive control, no cofactor control and no substrate tubes are incubated for the total incubation time. 10. Remove 100 μl aliquots up to 9 different sampling points from 0 to 60 min (usually 0, 3, 5, 10, 15, 20, 30, 45 & 60 min) and terminate reaction. Longer incubation times can be used, but, after 120 min the microsomes deteriorate. The reaction may be terminated by addition of organic solvent, acid or base. At the end of the incubation process the no cofactor and no substrate controls in a similar manner i.e. terminate with the same reagent. 11. PNA Positive Control Procedure: • After the final sample has been taken, remove the positive control and add 1 ml 20% TCA to this tube. Also prepare a tube containing 250 μl of a PNP standard at 50 μM, and add 1 ml 20% TCA. Whirlimix both tubes and leave for approx 5 min to allow the protein to precipitate. • Centrifuge both tubes for approx 5 min in an instrument set at 3500 rpm. Remove 1 ml of supernatant and place into clean test tubes, discard the remainder. • Add 1 ml 10M NaOH to the supernatant, whirlimix, and leave to stand for approx min. Blank spectrophotometer with distilled water at 400 nm then measure absorbance of the PNP standard against distilled water. The microsomal 4-nitroanisole O-demethylase activity is calculated as follows: Calculation of Results
[formula] • The activity value from the incubation MUST be equal to or greater than 85% of the mean value of the batch used for the incubation to be valid. If this criteria is not met, then the incubation must be repeated. 11. Analyse samples (including no cofactor and no substrate control) by a specific assay for the substrate to determine the disappearance kinetics. Analysis Of Data […]

T1 sequence (P32245 whole entry): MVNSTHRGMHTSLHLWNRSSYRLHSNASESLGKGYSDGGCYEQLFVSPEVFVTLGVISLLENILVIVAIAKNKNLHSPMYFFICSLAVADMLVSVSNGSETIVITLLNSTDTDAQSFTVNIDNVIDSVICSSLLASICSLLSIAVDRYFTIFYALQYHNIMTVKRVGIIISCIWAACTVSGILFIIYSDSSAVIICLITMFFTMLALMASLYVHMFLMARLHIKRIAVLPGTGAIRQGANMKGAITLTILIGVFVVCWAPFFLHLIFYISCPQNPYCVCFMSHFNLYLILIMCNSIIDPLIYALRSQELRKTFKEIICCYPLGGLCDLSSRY

`C[C@@H]1CN(C(=O)[C@@H]2CN(c3ccc(C#N)nn3)C[C@H]2c2ccc(Cl)cn2)C[C@H](C)[C@@]1(O)c1ccc(F)cc1` [Example 2, 6-[(3S,4S)-3-(5-Chloropyridin-2-yl)-4-{[(3R,4R,5S)-4-(4-fluorophenyl)-4-hydroxy-3,5-dimethylpiperidin-1-yl]carbonyl}pyrrolidin-1-yl]pyridazine-3-carbonitrile] gave a Ki (MC4 receptor (MC4R)) of 27 nM and a microsomal CLint at 1 μM [1] of 31 µL/min/mg.

Molecule `C[C@@H]1CN(C(=O)[C@@H]2CN(c3ccc(=O)n(C)n3)C[C@H]2c2ccc(Cl)cn2)C[C@H](C)[C@@]1(O)c1ccc(Cl)cn1` [Example 10] has a Ki (MC4 receptor (MC4R)) of 276 nM and a microsomal CLint at 1 μM [1] of 42 µL/min/mg.

With `C[C@@H]1CN(C(=O)[C@@H]2CN(c3ccc(=O)n(C)n3)C[C@H]2c2ccc(Cl)cn2)C[C@H](C)[C@@]1(O)C1CCCCC1` [Example 17] the Ki (MC4 receptor (MC4R)) was 112 nM and the microsomal CLint at 1 μM [1] was over 510 µL/min/mg.

With `CC1CN(C(=O)C2CN(c3ccc(=O)n(C)n3)CC2c2ccc(Cl)cn2)CC(C)C1(O)c1ccc(F)c(F)c1` (stereo not shown) [Example 19] the Ki (MC4 receptor (MC4R)) was 85.4 nM and the microsomal CLint at 1 μM [1] was 21 µL/min/mg.

In the case of `COc1ccc(C2(O)C(C)CN(C(=O)C3CN(c4ccc(=O)n(C)n4)CC3c3ccc(Cl)cn3)CC2C)cc1` (stereo not shown) [Example 20], the Ki (MC4 receptor (MC4R)) is reported as 251 nM and the microsomal CLint at 1 μM [1] is reported as 51.5 µL/min/mg.

In the case of `CC1CN(C(=O)C2CN(c3ccc(=O)n(C)n3)CC2c2ccc(Cl)cn2)CC(C)C1(O)c1ccc(Cl)cc1` (stereo not shown) [Example 23], the Ki (MC4 receptor (MC4R)) is reported as 65.7 nM and the microsomal CLint at 1 μM [1] is reported as under 8.5 µL/min/mg.

Molecule `CC1CN(C(=O)C2CN(c3cncc(F)c3)CC2c2ccc(Cl)cn2)CC(C)C1(O)c1ccc(F)cc1` (stereo not shown) [Example 25] has a Ki (MC4 receptor (MC4R)) of 10.9 nM and a microsomal CLint at 1 μM [1] of 172 µL/min/mg.

`C[C@@H]1CN(C(=O)[C@@H]2CN(c3ccc(C#N)nn3)C[C@H]2c2ccc(F)cn2)C[C@H](C)[C@@]1(O)c1ccc(Cl)cc1` [Example 32] gave a Ki (MC4 receptor (MC4R)) of 150 nM and a microsomal CLint at 1 μM [1] of under 8.5 µL/min/mg.

From US8138188B2, “Melanocortin type 4 receptor agonist piperidinoylpyrrolidines” (Pfizer Inc., priority 2006, dated 2012)
